Values after ≈ are worked out from the molar mass of the structure shown. Like-named read-outs stand apart in the source and are kept apart here.
Test system: E. coli D31
Assay: MIC, control bacteria (Example 8)
Type: cell-based
Details: for Decrease of activity by addition of 2% lysed horse red blood cells to Mueller-Hinton broth / Decrease of activity by use of HTM broth: Control Bacteria E. coli D31
Procedure: • Mueller-Hinton Broth in tubes was inoculated with 25 ocular isolates of Staphylococcus aureus fluoroquinolone-susceptible, Staphylococcus aureus fluoroquinolone-resistant, Staphylococcus epidermidis (Coagulase-negative Staphylococcus) fluoroquinolone-susceptible, Staphylococcus epidermidis (Coagulase-negative Staphylococcus) fluoroquinolone-resistant, Pseudomonas aeruginosa and Serratia marcescens, plus two controls (Staphylococcus aureus and E. coli) and incubated at 37° C. overnight on a shaker set at 250 rpm.
Control Bacteria—The two control bacteria (Staphylococcus aureus and E. coli) were treated as above.
Control Bacteria Set #1—this set of control bacteria were treated as the Streptococcus pneumoniae, Streptococcus viridans and Moraxella species (including Moraxella catarrhalis) test isolates above; the control bacteria underwent the same conditions as the test Streptococcus pneumoniae, Streptococcus viridans and Moraxella species (including Moraxella catarrhalis) isolates. This set of control bacteria was to determine whether there was a difference in the MICs by performing the MIC determinations in 2% lysed horse red blood cells with the standard method performed in Mueller-Hinton broth.
Control Bacteria Set #2—the control bacteria were added to 5 ml of Mueller-Hinton Broth without the 2% lysed horse red blood cells to achieve the standard inoculum concentration. This set of control bacteria is the normal control to determine whether the compounds are at the target MICs.
Control Bacteria Set #1—this set of control bacteria were treated as the Haemophilus influenzae test isolates above; the control bacteria underwent the same conditions as the test Haemophilus influenzae isolates. This set of control bacteria is to determine whether there was a difference in the MICs by performing the MIC determinations in HTM broth with the standard method performed in Mueller-Hinton broth.
Control Bacteria Set #2—the control bacteria were added to 5 ml of Mueller-Hinton Broth to achieve the standard inoculum concentration. This set of control bacteria is the normal control to determine whether the compounds are at the target MICs.
Ninety μl of the bacterial suspensions was dispensed in each well from column 1 to column 12. Each bacterial isolate was placed in one row of a 96 well polypropylene plate containing the test agents. The plates were placed on shaker at 15 minutes at room temperature, and then incubated at 37° C. overnight. MICs were determined visually as the lowest concentration of drug that inhibits visible bacterial growth.

[1] = Control Bacteria Set #1, run with Haemophilus influenzae MIC test, read-out: MIC
[2] = E. coli D31, Control for MIC Test SA-FQR, first batch
[3] = E. coli D31, Control for MIC Test SA-FQS, first batch
[4] = E. coli D31, new batches, Control Only 1
[5] = E. coli D31, new batches, Control Only 2
[6] = E. coli D31, new batches, Control Only 3
[7] = E. coli D31, new batches, Control Only 4
[8] = Escherichia coli, D31, Control Bacteria Set #1, run with Moraxella MIC test, read-out: MIC
[9] = Escherichia coli, D31, Control Only 1, read-out: MIC of control bacteria on day of MIC testing
[10] = Escherichia coli, D31, Control Only 2, read-out: MIC of control bacteria on day of MIC testing
[11] = Escherichia coli, D31, Control Only 3, read-out: MIC of control bacteria on day of MIC testing
[12] = Escherichia coli, D31, Control Only 4, read-out: MIC of control bacteria on day of MIC testing
[13] = Escherichia coli, D31, E. coli D31, Control Bacteria Set #1 (same conditions as test isolates), run with Streptococcus pneumoniae MIC test, read-out: MIC
[14] = Escherichia coli, D31, E. coli D31, Control Bacteria Set #1 (same conditions as test isolates), run with Streptococcus viridans group MIC test, read-out: MIC
[15] = Escherichia coli, D31, E. coli D31, Control Bacteria Set #2 (Mueller-Hinton Broth), run with Streptococcus pneumoniae MIC test, read-out: MIC
[16] = Escherichia coli, D31, E. coli D31, Control Bacteria Set #2 (Mueller-Hinton Broth), run with Streptococcus viridans group MIC test, read-out: MIC
[17] = Escherichia coli, D31, E. coli D31, control bacteria run with Pseudomonas aeruginosa MIC test, read-out: MIC
[18] = Escherichia coli, D31, E. coli D31, control bacteria run with S. aureus fluoroquinolone-resistant MIC test, read-out: MIC
[19] = Escherichia coli, D31, E. coli D31, control bacteria run with S. aureus fluoroquinolone-susceptible MIC test, read-out: MIC
[20] = Escherichia coli, D31, E. coli D31, control bacteria run with S. epidermidis fluoroquinolone-resistant MIC test, read-out: MIC
[21] = Escherichia coli, D31, E. coli D31, control bacteria run with S. epidermidis fluoroquinolone-susceptible MIC test, read-out: MIC
[22] = Escherichia coli, D31, E. coli D31, control bacteria run with Serratia marcescens MIC test, read-out: MIC
[23] = Escherichia coli, D31, E. coli D31, MIC previously obtained (target MIC), printed in parentheses, read-out: MIC for Control Bacteria within the parentheses
[24] = Escherichia coli, D31, E. coli D31, read-out: MIC
[25] = Escherichia coli, D31, control for MIC test HI (Control Bacteria Set #2), read-out: MIC of control bacteria on day of MIC testing
[26] = Escherichia coli, D31, control for MIC test MS (Control Bacteria Set #2), read-out: MIC of control bacteria on day of MIC testing
[27] = Escherichia coli, D31, control for MIC test PA, read-out: MIC of control bacteria on day of MIC testing
[28] = Escherichia coli, D31, control for MIC test SA-FQR, read-out: MIC of control bacteria on day of MIC testing
[29] = Escherichia coli, D31, control for MIC test SA-FQS, read-out: MIC of control bacteria on day of MIC testing
[30] = Escherichia coli, D31, control for MIC test SE-FQR, read-out: MIC of control bacteria on day of MIC testing
[31] = Escherichia coli, D31, control for MIC test SE-FQS, read-out: MIC of control bacteria on day of MIC testing
[32] = Escherichia coli, D31, control for MIC test SM, read-out: MIC of control bacteria on day of MIC testing
[33] = Escherichia coli, D31, control for MIC test SP, read-out: MIC of control bacteria on day of MIC testing
[34] = Escherichia coli, D31, control for MIC test SV, read-out: MIC of control bacteria on day of MIC testing
[35] = Escherichia coli, D31, reference MIC printed in parentheses beside the day's control value, read-out: MIC for Control Bacteria (within the parentheses)

Compound | Decrease of activity by addition of 2% lysed horse red blood cells to Mueller-Hinton broth | Decrease of activity by use of HTM broth | MIC [1] | MIC [2] | MIC [3] | MIC [4] | MIC [5] | MIC [6] | MIC [7] | MIC [8] | MIC [9] | MIC [10] | MIC [11] | MIC [12] | MIC [13] | MIC [14] | MIC [15] | MIC [16] | MIC [17] | MIC [18] | other results
N=C(N)NCCCCC(=O)Nc1cc(C(F)(F)F)cc(NC(=O)c2cc(C(=O)Nc3cc(C(F)(F)F)cc(NC(=O)CCCCNC(=N)N)c3O[C@@H]3CCNC3)ncn2)c1O[C@@H]1CCNC1 [Oligomer 4] | approximately 4 fold | approximately 8 fold | 8 µg/mL (≈ 8.54 µM) | 1 µg/mL (≈ 1.07 µM) | 1 µg/mL (≈ 1.07 µM) | 1 µg/mL (≈ 1.07 µM) | 1 µg/mL (≈ 1.07 µM) | 1 µg/mL (≈ 1.07 µM) | 1 µg/mL (≈ 1.07 µM) | 4 µg/mL (≈ 4.27 µM) | 1 µg/mL | 1 µg/mL | 1 µg/mL | 1 µg/mL | 2 µg/mL (≈ 2.13 µM) | 2 µg/mL (≈ 2.13 µM) | 0.5 µg/mL (≈ 0.534 µM) | 0.5 µg/mL (≈ 0.534 µM) | 0.5 µg/mL (≈ 0.534 µM) | 1 µg/mL (≈ 1.07 µM) | MIC (E. coli Lab Strain D31): 0.78 µg/mL (≈ 0.833 µM); MIC [19]: 1 µg/mL (≈ 1.07 µM); MIC [20]: 1 µg/mL (≈ 1.07 µM); MIC [21]: 1 µg/mL (≈ 1.07 µM); MIC [22]: 0.5 µg/mL (≈ 0.534 µM); MIC [23]: 0.78 µg/mL (≈ 0.833 µM); MIC [24]: 0.78 µg/mL (≈ 0.833 µM); MIC [25]: 1 µg/mL; MIC [26]: 1 µg/mL; MIC [27]: 0.5 µg/mL; MIC [28]: 1 µg/mL; MIC [29]: 1 µg/mL; MIC [30]: 1 µg/mL; MIC [31]: 1 µg/mL; MIC [32]: 0.5 µg/mL; MIC [33]: 0.5 µg/mL; MIC [34]: 0.5 µg/mL; MIC [35]: 0.78 µg/mL (≈ 0.833 µM)
N=C(N)NCCCCC(=O)Nc1cc(C(F)(F)F)cc(NC(=O)c2cnc(C(=O)Nc3cc(C(F)(F)F)cc(NC(=O)CCCCNC(=N)N)c3SCCN)cn2)c1SCCN [Oligomer 5] | increase or have no effect | no effect | 16 µg/mL (≈ 17.4 µM) | 4 µg/mL (≈ 4.36 µM) | 16 µg/mL (≈ 17.4 µM) | 8 µg/mL (≈ 8.72 µM) | 8 µg/mL (≈ 8.72 µM) | 8 µg/mL (≈ 8.72 µM) | 16 µg/mL (≈ 17.4 µM) | 2 µg/mL (≈ 2.18 µM) | 8 µg/mL | 8 µg/mL | 8 µg/mL | 16 µg/mL | 2 µg/mL (≈ 2.18 µM) | 2 µg/mL (≈ 2.18 µM) | 16 µg/mL (≈ 17.4 µM) | 16 µg/mL (≈ 17.4 µM) | 8 µg/mL (≈ 8.72 µM) | 4 µg/mL (≈ 4.36 µM) | MIC [19]: 16 µg/mL (≈ 17.4 µM); MIC [20]: 4 µg/mL (≈ 4.36 µM); MIC [21]: 4 µg/mL (≈ 4.36 µM); MIC [22]: 4 µg/mL (≈ 4.36 µM); MIC [23]: 1.56 µg/mL (≈ 1.7 µM); MIC [24]: 1.56 µg/mL (≈ 1.7 µM); MIC [25]: 16 µg/mL; MIC [26]: 16 µg/mL; MIC [27]: 8 µg/mL; MIC [28]: 4 µg/mL; MIC [29]: 16 µg/mL; MIC [30]: 4 µg/mL; MIC [31]: 4 µg/mL; MIC [32]: 4 µg/mL; MIC [33]: 16 µg/mL; MIC [34]: 16 µg/mL; MIC [35]: 1.56 µg/mL (≈ 1.7 µM)

Source: US20130065818A1, “Arylamide Compounds And Compositions And Uses Thereof” (POLYMEDIX, priority 2006, published 2013)
